Results from the supplement of paper PMC10307832.

Tests used:
Assay in all cases: relative viability (nuclei count vs DMSO), 5 days (fraction); higher = more cells survive
COR-L23 = tested on: COR-L23
Outline: (§1)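 A single step with final 0.05% Triton X-100, 1% formaldehyde and 1 ug/ml Hoechst fixed the cells and stained nuclei 5 days after treatment. Lung cancer cell lines in 1536-well plates had been treated by pin tool the day after seeding with one drug alone or a fixed anchor-drug dose plus five library-drug doses (not always all listed) in √10 steps, and nuclei were counted on 4× images. Relative viability is the ratio of nuclei in treated wells to nuclei in vehicle wells, taken as the median of duplicate plates.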

ChaGo-K-1 = tested on: ChaGo-K-1
Outline: as §1

EMC-BAC-2 = tested on: EMC-BAC-2
Outline: as §1

EPLC-272H = tested on: EPLC-272H
Outline: as §1

HCC-44 = tested on: HCC-44
Outline: as §1

HOP-62 = tested on: HOP-62
Outline: as §1

LCLC-103H = tested on: LCLC-103H
Outline: as §1

LK-2 = tested on: LK-2
Outline: as §1

NCI-H1355 = tested on: NCI-H1355
Outline: as §1

NCI-H1666 = tested on: NCI-H1666
Outline: as §1

NCI-H1944 = tested on: NCI-H1944
Outline: as §1

NCI-H1975 = tested on: NCI-H1975
Outline: as §1

NCI-H2023 = tested on: NCI-H2023
Outline: as §1

NCI-H2087 = tested on: NCI-H2087
Outline: as §1

NCI-H2126 = tested on: NCI-H2126
Outline: as §1

NCI-H2228 = tested on: NCI-H2228
Outline: as §1

NCI-H2405 = tested on: NCI-H2405
Outline: as §1

NCI-H3122 = tested on: NCI-H3122
Outline: as §1

NCI-H322M = tested on: NCI-H322M
Outline: as §1

NCI-H441 = tested on: NCI-H441
Outline: as §1

NCI-H460 = tested on: NCI-H460
Outline: as §1

NCI-H596 = tested on: NCI-H596
Outline: as §1

PC-14 = tested on: PC-14
Outline: as §1

SW 1573 = tested on: SW 1573
Outline: as §1

SW 900 = tested on: SW 900
Outline: as §1

`Nc1cccc2c1CN(C1CCC(=O)NC1=O)C2=O` (stereo not given) [Lenalidomide] + Nc1nc2[nH]cc(CCc3ccc(C(=O)N[C@@H](CCC(=O)O)C(=O)O)cc3)c2c(=O)[nH]1 [Pemetrexed] (partner 0.2 µM) was tested, and the relative viability (COR-L23; first compound 0.253 µM) was 0.192, the relative viability (COR-L23; first compound 0.8 µM) was 0.191 and the relative viability (COR-L23; first compound 2.53 µM) was 0.191. For the same compound, the relative viability (COR-L23; first compound 8 µM) was 0.189, the relative viability (ChaGo-K-1; first compound 0.253 µM) was 0.256 and the relative viability (ChaGo-K-1; first compound 0.8 µM) was 0.255. For the same compound, the relative viability (ChaGo-K-1; first compound 2.53 µM) was 0.274, the relative viability (ChaGo-K-1; first compound 8 µM) was 0.26 and the relative viability (EMC-BAC-2; first compound 0.253 µM) was 0.437. The relative viability (EMC-BAC-2; first compound 0.8 µM) was 0.392, the relative viability (EMC-BAC-2; first compound 2.53 µM) was 0.451 and the relative viability (EMC-BAC-2; first compound 8 µM) was 0.463. It also gave a relative viability (EPLC-272H; first compound 0.253 µM) of 0.328, a relative viability (EPLC-272H; first compound 2.53 µM) of 0.356 and a relative viability (EPLC-272H; first compound 8 µM) of 0.359. It also gave a relative viability (HCC-44; first compound 0.253 µM) of 0.616, a relative viability (HCC-44; first compound 0.8 µM) of 0.638 and a relative viability (HCC-44; first compound 2.53 µM) of 0.631. The relative viability (HCC-44; first compound 8 µM) was 0.762, the relative viability (HOP-62; first compound 0.253 µM) was 0.356 and the relative viability (HOP-62; first compound 0.8 µM) was 0.376. It also gave a relative viability (HOP-62; first compound 2.53 µM) of 0.287, a relative viability (HOP-62; first compound 8 µM) of 0.381 and a relative viability (LCLC-103H; first compound 0.253 µM) of 0.488. The relative viability (LCLC-103H; first compound 0.8 µM) was 0.476, the relative viability (LCLC-103H; first compound 2.53 µM) was 0.474 and the relative viability (LCLC-103H; first compound 8 µM) was 0.458. It also gave a relative viability (LK-2; first compound 0.253 µM) of 0.301, a relative viability (LK-2; first compound 0.8 µM) of 0.167 and a relative viability (LK-2; first compound 2.53 µM) of 0.227. It also gave a relative viability (LK-2; first compound 8 µM) of 0.175, a relative viability (NCI-H1355; first compound 0.253 µM) of 1.08 and a relative viability (NCI-H1355; first compound 0.8 µM) of 0.784. The relative viability (NCI-H1355; first compound 2.53 µM) was 1.13, the relative viability (NCI-H1355; first compound 8 µM) was 0.738 and the relative viability (NCI-H1666; first compound 0.253 µM) was 0.801. It also gave a relative viability (NCI-H1666; first compound 0.8 µM) of 0.878, a relative viability (NCI-H1666; first compound 2.53 µM) of 0.873 and a relative viability (NCI-H1666; first compound 8 µM) of 0.826. The relative viability (NCI-H1944; first compound 0.253 µM) was 0.642, the relative viability (NCI-H1944; first compound 2.53 µM) was 0.691 and the relative viability (NCI-H1944; first compound 8 µM) was 0.553. It also gave a relative viability (NCI-H1975; first compound 0.253 µM) of 0.29, a relative viability (NCI-H1975; first compound 0.8 µM) of 0.303 and a relative viability (NCI-H1975; first compound 2.53 µM) of 0.322. The relative viability (NCI-H1975; first compound 8 µM) was 0.332, the relative viability (NCI-H2023; first compound 0.253 µM) was 0.259 and the relative viability (NCI-H2023; first compound 0.8 µM) was 0.235. The relative viability (NCI-H2023; first compound 2.53 µM) was 0.246, the relative viability (NCI-H2023; first compound 8 µM) was 0.256 and the relative viability (NCI-H2087; first compound 0.253 µM) was 0.65. For the same compound, the relative viability (NCI-H2087; first compound 2.53 µM) was 0.642, the relative viability (NCI-H2087; first compound 8 µM) was 0.671 and the relative viability (NCI-H2126; first compound 0.253 µM) was 0.655. It also gave a relative viability (NCI-H2126; first compound 0.8 µM) of 0.679, a relative viability (NCI-H2126; first compound 2.53 µM) of 0.75 and a relative viability (NCI-H2126; first compound 8 µM) of 0.634. For the same compound, the relative viability (NCI-H2228; first compound 0.253 µM) was 0.345, the relative viability (NCI-H2228; first compound 0.8 µM) was 0.345 and the relative viability (NCI-H2228; first compound 2.53 µM) was 0.358. It also gave a relative viability (NCI-H2228; first compound 8 µM) of 0.358, a relative viability (NCI-H2405; first compound 0.253 µM) of 0.999 and a relative viability (NCI-H2405; first compound 0.8 µM) of 0.988. For the same compound, the relative viability (NCI-H2405; first compound 2.53 µM) was 1.08, the relative viability (NCI-H2405; first compound 8 µM) was 0.94 and the relative viability (NCI-H3122; first compound 0.253 µM) was 0.205. The relative viability (NCI-H3122; first compound 0.8 µM) was 0.202, the relative viability (NCI-H3122; first compound 2.53 µM) was 0.193 and the relative viability (NCI-H3122; first compound 8 µM) was 0.23. The relative viability (NCI-H322M; first compound 0.253 µM) was 0.631, the relative viability (NCI-H322M; first compound 0.8 µM) was 0.635 and the relative viability (NCI-H322M; first compound 2.53 µM) was 0.664. It also gave a relative viability (NCI-H322M; first compound 8 µM) of 0.697, a relative viability (NCI-H441; first compound 0.253 µM) of 0.27 and a relative viability (NCI-H441; first compound 0.8 µM) of 0.273. For the same compound, the relative viability (NCI-H441; first compound 2.53 µM) was 0.268, the relative viability (NCI-H441; first compound 8 µM) was 0.242 and the relative viability (NCI-H460; first compound 0.253 µM) was 0.0811. For the same compound, the relative viability (NCI-H460; first compound 0.8 µM) was 0.068, the relative viability (NCI-H460; first compound 2.53 µM) was 0.0659 and the relative viability (NCI-H460; first compound 8 µM) was 0.0603. For the same compound, the relative viability (NCI-H596; first compound 0.253 µM) was 0.519, the relative viability (NCI-H596; first compound 0.8 µM) was 0.4 and the relative viability (NCI-H596; first compound 2.53 µM) was 0.538. It also gave a relative viability (NCI-H596; first compound 8 µM) of 0.48, a relative viability (PC-14; first compound 0.253 µM) of 0.126 and a relative viability (PC-14; first compound 0.8 µM) of 0.151. It also gave a relative viability (PC-14; first compound 2.53 µM) of 0.139, a relative viability (PC-14; first compound 8 µM) of 0.16 and a relative viability (SW 1573; first compound 0.253 µM) of 0.751. The relative viability (SW 1573; first compound 0.8 µM) was 0.856, the relative viability (SW 1573; first compound 2.53 µM) was 0.98 and the relative viability (SW 1573; first compound 8 µM) was 0.812. It also gave a relative viability (SW 900; first compound 2.53 µM) of 0.509 and a relative viability (SW 900; first compound 8 µM) of 0.477.
